Test results reported in patent publication US5262157A (priority 1988, dated 1993).
Where two headings read alike, the source gives them in different places.

Assays:
[1] = in vivo; conditions: rat, im, 4 mg/kg, level in the lungs
[2] = in vivo; conditions: rat; for concentration at 24 h: inhaled or intranasal, 3.2 mg/kg/day, aerosol 3.2 mg/kg daily × 4, 24 h after last dose
Method: (§1) Rats were treated in groups of four. […] Doses in all trials were calculated as above.
Treatments were well-tolerated. […] There were rare foci of mild thickening of interalveolar septae containing a few histiocytes and some congestion. […] These were also seen in sections from control animals and are common findings in normal rat lung.

[3] = test system: Pneumocystis carinii; assay: Clinical effectiveness of aerosol pentamidine in prophylaxis of PCP; assay type: in vivo, human
Method: (§2) Each aerosol treatment was given over 15-30 minutes. […] 1.0, 1.5,or 2.0 ml aliquots were added to the nebulizer reservoir for doses of 30, 45, or 60 mg, respectively. Sterile pyrogen-free water was added to yield a total volume of 3.0 ml. Treatments were administered by a physician or registered nurse.
Prophylaxis was judged effective for an individual patient if that patient had no proven or probable episodes of PCP. Prophylaxis was considered a proven failure if a patinet developed pneumonia and P. carinii was found in stained preparations obtained by bronchoscopy or lung biopsy. Prophylaxis was considered a probable failure if a patient develops pneumonia and responded to empiric treatment with SXT […]. If a patient died and no autopsy was perfomed, the case was considered not evaluable unless there was evidence that the patient had good antemortem pulmonary function and died from other causes. If the latter conditions were met, the case was considered a probable success.
The treatment period was three months; patients were examined before and after each treatment and underwent pulmonary function testing and biochemical and hematologic tests before treatment no. 1 and after treatment nos. 1, 2, 4, and 6.
A total of 650 treatments were given. Treatment periods ranged from 1-12 months. […] They had no reactions after their first four doses and was receiving several other medications at the time the rash developed. […] Five proven episodes of PCP have occurred among patients who received biweekly doses of 30 mg; six proven episodes of PCP have occurred among patients who were treated with this dose, but who skipped one or more scheduled doses.
A total of 73 patients were enrolled over the past two months with approximately equal numbers at each dose level. […] Patients who were receiving the low dose have since been randomized to receive either 45 or 60 mg. To date two patients receiving 45 mg have had proven episodes of PCP.

[4] = human, in vivo
Description: Patients were 18 years old or older and outpatients judged free of any imminently-critical medical problems. All patents received a complete physical examination and medical history evaluation. Pretreatment laboratory studies included a CBC with differential and platelet count, a biochemical screening profile, chest X-ray, and pulmonary function tests including spirometry and measurement of diffusion capacity.
Each patient was issued a device at the start of the study. These devices were labeled with the patient's code number. The devices are simple to operate and their sterility was ensured as components were replaced after a single use. New sterile plastic reservoirs for the drug solution and new sterile suction rods were used for each treatment.
as §2
Signs of systemic toxicity were monitored. To detect adverse effects on the lungs, pulmonary function was monitored.
All problems were judged a concomitant illness or adverse reaction based on the following definitions. […]
Patients were interviewed before and after each treatment and any adverse reactions, complaints, or comments recorded. […]

[5] = test system: Pneumocystis carinii; assay: Experimental rat model of Pneumocystis carinii pneumonia (PCP); assay type: in vivo; conditions: for Cysts/hpf in lung at necropsy: high power field 400×
Method: as §1
Treatment regimens were tested in the standard animal model of PCP (6). To induce infection with P. carinii, rats were immunosuppresed with steriods for twelve weeks while restricted to a low-protein diet and tetracycline. Administration of a test regimen was initiated early during the induction period to determine its effectiveness in preventing PCP and was initiated late during the induction period to determine its effectiveness in treating PCP. Male Sprague-Dawley rats weighing 175-225 g were used. Rats were given twice weekly subcutaneous injections of 75 mg/kg of cortisone acetate, were maintained on an 8% protein diet, and were treated with tetracycline via their drinking water. Rats were sacrificed after twelve weeks of this regimen and the extent of infection was judged by counting cysts in toluidine blue 0-stained smears of lung homogenates. Lung homogenates were prepared by combining a weighed portion of tissue with nine ml of 0.1N HCl per g.

[6] = test system: Pneumocystis carinii; conditions: animal model of PCP; cited from earlier work
[7] = aerosol 45 mg, weekly for four weeks then biweekly
[8] = Trial I, 0.4 mg/kg aerosol weekly, wk 5-11, mean ± standard deviation
[9] = Trial I, 4.0 mg/kg IM weekly, wk 5-11, mean ± standard deviation
[10] = Trial I, prophylactic aerosol 0.4 mg/kg weekly, weeks 5-11
[11] = Trial II, 0.2 mg/kg aerosol weekly, wk 7-11, mean ± standard deviation
[12] = Trial II, 0.4 mg/kg aerosol daily, 4×, wk 10, mean ± standard deviation
[13] = Trial III, 0.4 mg/kg aerosol biweekly, wks 7, 9, 11, mean ± standard deviation
[14] = Trial III, 0.4 mg/kg aerosol daily, 4×, wk 12, mean ± standard deviation
[15] = Trial III, 0.8 mg/kg aerosol monthly, wks 4, 8, mean ± standard deviation

## N=C(N)c1ccc(OCCCCCOc2ccc(C(=N)N)cc2)cc1 [pentamidine, Pentamidine isethionate]
[1]
  concentration at 24 h: 800 ng/g
[2]; kidney
  concentration at 24 h: 7200 ng/g
[2]; lung
  concentration at 24 h: 291000 ng/g
[2]; aerosol 3.2 mg/kg daily × 4
  lung weight and appearance: normal in weight and appearance
  toxicity of high lung concentrations: little or no toxicity
[2]; aerosol 3.2 mg/kg daily × 4 (total dose 12.8 mg/kg)
  tolerability of treatments: well-tolerated
[2]; aerosol 3.2 mg/kg daily × 4, stained sections
  histopathology of lungs: no histopathologic changes were found
[3]; aerosol 30 mg biweekly, 60 patients, 1-12 months
  proven episodes of PCP: Five
[3]; aerosol 30 mg biweekly, skipped doses
  proven episodes of PCP in patients who skipped one or more scheduled doses: six
[3]; aerosol 30 mg biweekly, twelve patients, three months
  proven or possible episodes of PCP: no patient had a proven or possible episode of PCP
[3]; aerosol 30 mg dose
  protection: not reliably protective
[3]; [7]
  patients with proven episodes of PCP: two
  severity of PCP episodes: very mild episodes
[3]; all phases, 960 doses, 116 patients
  mild cases of PCP: seven
[3]; all phases, preliminary evidence
  protection: at least partially protective
[4]
  tolerability of treatments: well tolerated
[5]; Trial I, 0.4 mg/kg aerosol weekly, wk 5-11
  Cysts/hpf in lung at necropsy: < 1 Cysts/hpf
[5]; [8]
  Lung weight at necropsy: 1.94 ± 0.21 g
  Pent in lung at necropsy: 29.7 ± 7.1 µg/g
[5]; [9]
  Cysts/hpf in lung at necropsy: 102 ± 88 Cysts/hpf
  Lung weight at necropsy: 3.28 ± 1.15 g
  Pent in lung at necropsy: 4.5 ± 1.7 µg/g
[5]; Trial I, aerosol 0.4 mg/kg vs IM 4.0 mg/kg weekly
  effectiveness in prevention of PCP, aerosol versus IM: more effective in prevention of PCP than tenfold higher doses of IM pentamidine
[5]; [10]
  cysts of P. carinii in stained smears of lung homogenates: rare or absent
  lung weight and appearance: normal in weight and appearance
  severity of infection versus control animals: more than a thousandfold less severe infection than was seen in control animals
[5]; [11]
  Lung weight at necropsy: 1.43 ± 0.31 g
  Pent in lung at necropsy: 15.2 ± 5.0 µg/g
[5]; [12]
  Cysts/hpf in lung at necropsy: 20.8 ± 30.8 Cysts/hpf
  Lung weight at necropsy: 1.20 ± 0.20 g
  Pent in lung at necropsy: 15.8 ± 10.9 µg/g
[5]; Trial II, aerosol weekly, weeks 7-11, 0.1 mg/kg
  effectiveness of prophylactic regimen: effective
[5]; [13]
  Cysts/hpf in lung at necropsy: 48 ± 109 Cysts/hpf
  Lung weight at necropsy: 1.41 ± 0.64 g
  Pent in lung at necropsy: 13.4 ± 7.9 µg/g
[5]; [14]
  Cysts/hpf in lung at necropsy: 188 ± 255 Cysts/hpf
  Lung weight at necropsy: 2.08 ± 0.68 g
  Pent in lung at necropsy: 8.3 ± 6.4 µg/g
[5]; [15]
  Cysts/hpf in lung at necropsy: 4.6 ± 4.2 Cysts/hpf
  Lung weight at necropsy: 1.26 ± 0.26 g
  Pent in lung at necropsy: 16.1 ± 3.3 µg/g
[5]; Trial III, aerosol 0.8 mg/kg monthly and 0.4 mg/kg biweekly
  effectiveness of prophylactic regimens: effective
[5]; low and infrequent aerosol treatment
  prevention of PCP in the animal model: highly effective in prevention of PCP
[5]; normal animals and early prophylactic doses vs animals treated with severe pneumonia
  retention of aerosol pentamidine: greater in normal animals and in animals that received early prophylactic doses than it was in animals who were treated when they had severe pneumonia
[5]; rat, in vivo
  effectiveness of therapeutic regimen: partially effective
[5]; within the prophylaxis and treatment groups
  number of cysts versus lung pentamidine concentration: the lowest number of cysts were found in animals with the highest concentrations of pentamidine in the lung
[6]
  prophylaxis of PCP with IV or IM pentamidine: unsuccessful in the animal model of PCP
